Assays:
SF-PhoQc = biological target: T1, SF-PhoQc (Shigella flexneri, UniProt Q83RR1); experiment: Pyrophosphate Reagent coupled enzymatic activity assay of SF-PhoQc; type: biochemical, S. flexneri 2a 301; conditions: for decrease of SF-PhoQc catalyzed consumption of ATP: Pyrophosphate Reagent
T1 construct: The amplified DNA segment encodes PhoQ HK amino acids 251–486; made in house; host or cells: E. coli JM109
Experimental: The enzymatic activity of SF-PhoQc was determined using the Pyrophosphate Reagent, in which ATP initiates the reaction and ADP generated by ATP is accompanied by the reduction of NADH to NAD^+. The rate of NADH reduction to NAD^+ is detected by a change in absorbance readings at 340 nm. The activity of SF-PhoQc is measured by detecting a decrease in NADH at A340. Recombinant SF-PhoQc (25 µmol/L) was added to initiate the reaction, and the A340 value was recorded by SoftMax vision 4.8 each minute for 30 minutes. The A340 value reduced from 1.47 to 0.65 in the presence of SF-PhoQc (Figure 2).
Figure 2 The activity of recombinant SF-PhoQc. The activity of SF-PhoQc from the Pyrophosphate Reagent was shown. All assays were conducted in a 96-well microplate spectrophotometer. The assay mixture (total volume was 200 µl) contained 25 mmol/L KCl, 2.5 mmol/L MgCl2, 2 mmol/L ATP, 1 mmol/L phosphoendpyruvate, 0.35 mmol/L NADH, 1.5 U/ml PK, 1.25 U/ml LDH and 50 mmol/L Tris-Cl (pH 8.0). Protein SF-PhoQc was added to a final concentration of 25 µmol/L to start the reaction. After SF-PhoQc was added, the A340 value was recorded by SoftMax vision 4.8 every minute for 30 minutes.
The enzymatic activity of SF-PhoQc was measured using both a Pyrophosphate Reagent (Sigma-Aldrich, MO, USA) and a Luminescent Kinase Assay (Promega, WI, USA). The Pyrophosphate Reagent was performed to confirm the inhibitory activities of the effective potential PhoQ inhibitors in the bioinformatics approach. All reactions were carried out in solid black, flat-bottomed 96-well plates. The Pyrophosphate Reagent was performed at 28°C by monitoring the decrease of NADH by a decrease in absorbance readings at 340 nm (ε340 = 6180 M^−1·cm^−1) in the presence of ATP. The final reaction mixture for the Pyrophosphate Reagent contained 25 µmol/L purified SF-PhoQc, 25 mmol/L KCl, 2.5 mmol/L MgCl2, 2 mmol/L ATP, 1 mmol/L phosphoendpyruvate, 0.35 mmol/L NADH, 1.5 U/ml PK, 1.25 U/ml LDH and 50 mmol/L Tris-Cl (pH 8.0). The enzyme activity was determined in the presence of various concentrations of potential PhoQ inhibitors […] to investigate dose-dependent inhibition effects. The A340 value was recorded by SoftMax vision 4.8 every minute, for 30 minutes. The rate of SF-PhoQc enzymatic activity inhibition by a compound was calculated by the following formula: [drawing 1]
Rp (Ratio of Phosphorylation) was defined as the ratio of the decrease activity of SF-PhoQc treated with compound vs the activity of SF-PhoQc treated without compounds. Rp was stand for the percentage of decrease activity of SF-PhoQc.
IC50(the concentration of inhibition of 50%)values of potential PhoQ inhibitors were obtained by fitting the data to a sigmoid dose–response equation using Origin 7.0 software (OriginLab, Northampton, USA).

S. flexneri Sf9380 = experiment: Mouse Sereny test (keratoconjunctivitis); on degree of keratoconjunctival inflammation: key: −: no disease; ±: little keratoconjunctivitis; +: mild keratoconjunctivitis; ++: keratoconjunctivitis with some purulence; +++: fully developed keratoconjunctivitis with great purulence; type: in vivo, BALB/c mice; conditions: for degree of keratoconjunctival inflammation: Sf9380 pre-treated at the concentration (I 1 12.5, I 2 25, I 3 and I 4 100 µmol/L); for keratoconjunctival inflammation (words, abstract): mice inoculated with pre-treated S. flexneri 9380
Source text: A Mouse Sereny test was used to investigate the inhibitory effect of the four potential PhoQ inhibitors on the virulence of S. flexneri Sf9380. The mice were infected with 1×10^8 CFUs per eye.
A Mouse Sereny test was used to evaluate the virulence of S. flexneri Sf9380 [48]. A single red colony of Sf9380 on Congo Red agar (Tryptic soy broth provided by Oxfoid Co. with 1.5% agar and 0.01% Congo red), was inoculated into LB and grown with or without potential PhoQ inhibitors (final concentration 100,50,25,12.5 or 6.25 µmol/L) at 37°C for 8 hours with constant shaking. The female BALB/c mice (about 18 g) were infected with 1×10^8 CFUs per eye. The eye of the mouse was inoculated with the bacterium with or without potential PhoQ inhibitor treatment (n = 6 mice in each group). […] In the experiment, mouse eyes inoculated with untreated Sf9380 (treated without DMSO) served as the positive control for keratoconjunctivitis, and mouse eyes inoculated with E. coli ATCC 25922 (treated without DMSO) served as the negative control. Because DMSO is the solvent of the potential PhoQ inhibitor, Sf9380 was treated with the same amount of DMSO (0.1%) as the other groups. The invasiveness of the bacteria was scored: no disease or mild irritation as “−”, + as mild conjunctivitis or late development and/or rapid clearing of symptoms, ++ as keratoconjunctivitis without purulence, and +++ as fully developed keratoconjunctivitis with purulence.

[1] = Erythrocyte hemolysis assay; type: cell-based; conditions: human erythrocytes (5% suspension), healthy human erythrocytes
Experimental: The hemolytic activity of the potential PhoQ inhibitors was determined using human erythrocytes. The erythrocytes were washed three times with sterile saline and resuspended to 5% cell concentration prior to assay. Then, 200 µl erythrocyte suspensions containing 25 µmol/L or 100 µmol/L concentrations of each potential PhoQ inhibitors were added in triplicate to the wells of the 96-well microtiter plates. Cells without potential PhoQ inhibitors treatment or with 1% Triton-100 treatment were used as the zero or 100% hemolysis control, respectively. The cell suspensions were incubated for 1 hour at 37°C and centrifuged for 10 minutes at 1200×g. Supernatants (100 µl) were transferred to another sterile plate, and the released hemoglobin was measured absorbance readings at 570 nm. […] The hemolysis assay was repeated twice.

[2] = Sf9380 pre-treated with 12.5 µmol/L, 1×10^8 CFUs per eye
[3] = Sf9380 pre-treated with 100 µmol/L, 1×10^8 CFUs per eye

T1 sequence (Q83RR1 251-486): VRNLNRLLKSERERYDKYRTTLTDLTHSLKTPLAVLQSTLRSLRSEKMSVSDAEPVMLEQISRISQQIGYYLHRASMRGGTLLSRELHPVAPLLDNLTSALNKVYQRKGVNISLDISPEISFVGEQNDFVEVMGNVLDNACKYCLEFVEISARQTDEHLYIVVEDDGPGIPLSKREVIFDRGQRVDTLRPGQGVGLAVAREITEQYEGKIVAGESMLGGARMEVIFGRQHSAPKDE

| Structure (SMILES) | IC50 (SF-PhoQc) [µM] | decrease of SF-PhoQc catalyzed consumption of ATP (SF-PhoQc) [%] | degree of keratoconjunctival inflammation (S. flexneri Sf9380; 24 h, mouse 1) | degree of keratoconjunctival inflammation (S. flexneri Sf9380; 24 h, mouse 2) | degree of keratoconjunctival inflammation (S. flexneri Sf9380; 24 h, mouse 3) | degree of keratoconjunctival inflammation (S. flexneri Sf9380; 24 h, mouse 4) | degree of keratoconjunctival inflammation (S. flexneri Sf9380; 24 h, mouse 5) | degree of keratoconjunctival inflammation (S. flexneri Sf9380; 24 h, mouse 6) | degree of keratoconjunctival inflammation (S. flexneri Sf9380; 48 h, mouse 1) | degree of keratoconjunctival inflammation (S. flexneri Sf9380; 48 h, mouse 2) | degree of keratoconjunctival inflammation (S. flexneri Sf9380; 48 h, mouse 3) | degree of keratoconjunctival inflammation (S. flexneri Sf9380; 48 h, mouse 4) | degree of keratoconjunctival inflammation (S. flexneri Sf9380; 48 h, mouse 5) | degree of keratoconjunctival inflammation (S. flexneri Sf9380; 48 h, mouse 6) | degree of keratoconjunctival inflammation (S. flexneri Sf9380; 72 h, mouse 1) | degree of keratoconjunctival inflammation (S. flexneri Sf9380; 72 h, mouse 2) | degree of keratoconjunctival inflammation (S. flexneri Sf9380; 72 h, mouse 3) | degree of keratoconjunctival inflammation (S. flexneri Sf9380; 72 h, mouse 4) | degree of keratoconjunctival inflammation (S. flexneri Sf9380; 72 h, mouse 5) | degree of keratoconjunctival inflammation (S. flexneri Sf9380; 72 h, mouse 6) | other results |
| --- | --- | --- | --- | --- | --- | --- | --- | --- | --- | --- | --- | --- | --- | --- | --- | --- | --- | --- | --- | --- | --- |
| O=C(Nc1ccc(C2(c3cccc(NC(=O)c4cccc5ccccc45)c3)c3ccccc3C(=O)c3ccccc32)cc1)c1ccc2ccccc2c1 [Compound 1] | 12 ± 3.91 | 100 | + | + | + | − | + | + | − | − | + | − | − | − | − | − | − | − | − | − | degree of keratoconjunctival inflammation (S. flexneri Sf9380; 96 h, mouse 1): −; degree of keratoconjunctival inflammation (S. flexneri Sf9380; 96 h, mouse 2): −; degree of keratoconjunctival inflammation (S. flexneri Sf9380; 96 h, mouse 3): −; degree of keratoconjunctival inflammation (S. flexneri Sf9380; 96 h, mouse 4): −; degree of keratoconjunctival inflammation (S. flexneri Sf9380; 96 h, mouse 5): −; degree of keratoconjunctival inflammation (S. flexneri Sf9380; 96 h, mouse 6): −; eye finding at 24 hours after infection (S. flexneri Sf9380; [2]): slight conjunctival inflammation; time by which keratoconjunctivitis was resolved (S. flexneri Sf9380; [2]): ≤ 48 h; keratoconjunctival inflammation (words, abstract) (S. flexneri Sf9380): no inflammation; hemolysis at 1 h, 25 µmol/L [1]: < 0.1%; hemolysis at 1 h, 100 µmol/L [1]: < 0.1% |
| O=C(O)c1cc(-c2ccc(-c3ccccc3Cl)o2)nc2ccc3ccccc3c12 [Compound 4] | 27.8 ± 5.59 | 65.8 | + | + | + | + | + | − | + | − | − | − | + | − | + | − | − | − | − | − | degree of keratoconjunctival inflammation (S. flexneri Sf9380; 96 h, mouse 1): −; degree of keratoconjunctival inflammation (S. flexneri Sf9380; 96 h, mouse 2): −; degree of keratoconjunctival inflammation (S. flexneri Sf9380; 96 h, mouse 3): −; degree of keratoconjunctival inflammation (S. flexneri Sf9380; 96 h, mouse 4): −; degree of keratoconjunctival inflammation (S. flexneri Sf9380; 96 h, mouse 5): −; degree of keratoconjunctival inflammation (S. flexneri Sf9380; 96 h, mouse 6): −; eye finding at 24 hours post-infection (S. flexneri Sf9380; [3]): slight conjunctival inflammation; time by which keratoconjunctivitis was resolved (S. flexneri Sf9380; [3]): ≤ 72 h; keratoconjunctival inflammation (words, abstract) (S. flexneri Sf9380): no inflammation; hemolysis at 1 h, 25 µmol/L [1]: < 0.1%; hemolysis at 1 h, 100 µmol/L [1]: < 0.1% |
